Reference: US20250066864A1, “METHODS FOR IDENTIFYING ADAR1 INHIBITORS, AND COMPOSITIONS AND METHODS OF USE IN TREATING CANCER” (The Wistar Institute of Anatomy and Biology, priority 2021, published 2025)
“Also recorded” adds a separate entry of the source.

How the values were obtained:
HeLa cells [1] = experiment: dot blot analysis for RNA:DNA hybrids in HeLa cells; type: cell-based, human; settings: 10 μM
Method: (§1) FIGS. 29A-29D Characterization of Compound #13 effects in cancer cells. […] Viability was examined using the Apo Tox-Glo assay system (Promega). Control, 0.3% DMSO. (FIG. 29B) Western blotting analysis of HeLa cells treated with Compound #13 (10 μM). […] (FIG. 29D) Activation of the IFN signaling pathway. HSC-4 squamous carcinoma cells were treated with Compound #13 at 10 μM (12 hrs). RNA samples were analyzed by qRT-PCR to monitor expression levels of ISGs.
Dot blot analysis of genomic DNA Cells were treated with siRNA for 72 h in a 10 cm dish, detached from the dish surface with TrypLE Express Enzyme, and harvested by centrifugation. After PBS wash, genomic DNA was purified using QIAGEN Blood & Cell Culture DNA Midi Kit. Briefly, the cell pellet was resuspended in buffer C1. After repeated buffer C1 wash and removal of the cell debris, the nuclear pellet was resuspended in buffer G2 (without rNase A) and treated with 2 mg of proteinase K at 50° C. for 60 min. The nuclear fraction was applied to a buffer QBT-treated QIAGEN Genomic-tip and washed twice with buffer QC. […]
Genomic DNA was diluted in 100 μl of 6× saline sodium citrate (SSC) and spotted onto a Hybond N^+ (GE Healthcare) using a Bio-Dot Apparatus (#1706545, Bio-Rad). […] After washing four times with PBST, dot signals were detected with ECL (GE Healthcare) using X-ray films. […]

HeLa cells [2] = experiment: Apo Tox-Glo viability assay, HeLa cells; type: cell-based, human
Method: (§2) HeLa, U2OS, and MRI90 cells were cultured in the presence of ADAR1 inhibitors, 5 μM or 20 μM, for 3 days. Their viability was examined using the Apo Tox-Glo assay system (Promega), which measures plasma membrane penetration of glycyl-phenyl-alanyl-aminofluorocoumarin peptide. Control, 0.3% DMSO. […] Data are mean±S.D. (n=3, biological replicates).
as §1

ADAR1p110-WT = target: T1, ADAR1p110-WT (Homo sapiens, UniProt P55265); experiment: surface plasmon resonance (Biacore T200), ADAR1p110-WT; type: binding; settings: SPR
T1 sequence (P55265 1-931 isoform P55265-5): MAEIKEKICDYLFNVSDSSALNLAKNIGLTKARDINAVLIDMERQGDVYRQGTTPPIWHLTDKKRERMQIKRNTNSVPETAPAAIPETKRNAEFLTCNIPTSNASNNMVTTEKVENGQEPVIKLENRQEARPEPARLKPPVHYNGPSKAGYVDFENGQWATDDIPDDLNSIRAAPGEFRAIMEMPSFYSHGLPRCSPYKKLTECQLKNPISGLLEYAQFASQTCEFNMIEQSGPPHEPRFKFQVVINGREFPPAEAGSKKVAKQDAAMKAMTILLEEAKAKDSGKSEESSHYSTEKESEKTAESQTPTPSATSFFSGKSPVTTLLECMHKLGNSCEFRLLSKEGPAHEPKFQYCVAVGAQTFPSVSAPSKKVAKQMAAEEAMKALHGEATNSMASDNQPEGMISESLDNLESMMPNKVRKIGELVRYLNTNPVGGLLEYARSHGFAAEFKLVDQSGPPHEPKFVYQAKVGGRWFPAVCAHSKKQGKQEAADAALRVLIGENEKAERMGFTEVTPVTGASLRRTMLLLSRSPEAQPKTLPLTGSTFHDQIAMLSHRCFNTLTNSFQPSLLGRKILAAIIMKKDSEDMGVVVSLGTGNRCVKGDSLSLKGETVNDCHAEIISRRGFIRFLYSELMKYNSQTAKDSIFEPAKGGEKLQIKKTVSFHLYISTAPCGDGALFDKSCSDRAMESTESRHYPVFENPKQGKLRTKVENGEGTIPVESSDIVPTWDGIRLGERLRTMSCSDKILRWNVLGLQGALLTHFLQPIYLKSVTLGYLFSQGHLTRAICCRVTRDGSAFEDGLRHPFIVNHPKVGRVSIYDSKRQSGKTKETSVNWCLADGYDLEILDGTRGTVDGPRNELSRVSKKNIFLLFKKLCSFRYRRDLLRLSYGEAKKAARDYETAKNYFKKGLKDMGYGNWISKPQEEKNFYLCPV
Text: We synthesized 2 additional analogs of Compound #13 for preliminary structure activity relationships (SAR), namely, #13-Analog 1 and #13-Analog 2 (Table 3). Compound #13-Analog 1 lacks the 4-cyano moiety and #13-Analog 2 shifts the cyano to the 2-position of the phenyl ring. […] We hypothesized that the cyano-phenyl moiety will coordinate with the zinc atom in the active site when bound to ADAR1. We evaluated the ability of Compound #13 to bind to ADAR1 using surface plasmon resonance (SPR) on the Biacore T200. […] We modeled Compound #13 into the ADAR2 active site (56).

U2OS cells = experiment: Apo Tox-Glo viability assay, U2OS cells; type: cell-based, human; settings: 5 μM, 3 days
Method: as §2, §1

For N#Cc1ccc(NC(=O)c2sc3ccccc3c2Cl)cc1 [Compound #13, 3-chloro-N-(4-cyanophenyl)-1-benzothiophene-2-carboxamide], the “formation of R-loops (RNA:DNA hybrids)” value (HeLa cells [1]) was “increased formation of R-loops; also recorded: RNA:DNA hybrids induced”, the “viability of HeLa (non-ALT) cells” value (HeLa cells [2]; 5 μM, 3 days) was “significantly decreased viability; also recorded: significantly reduced viability” and the “viability of HeLa non-ALT cancer cells” value (HeLa cells [2]; 10 μM, FIG. 29A) was “killed selectively; also recorded: selectively reduced viability”. For the same compound, the “binding to ADAR1p110 wildtype (qualitative)” value (ADAR1p110-WT) was “binds”, the Kd (ADAR1p110-WT; read-out: Kd, binding to ADAR1p110-WT) was roughly 26 µM and the “viability of U2OS (ALT) cells” value (U2OS cells) was “very little effects”.
